Measured values from patent US7348163B2, “Human GABAB receptor 1 promoters” (AstraZeneca AB, priority 1999, dated 2008).

System: human GABAB receptor 1 promoter P1b
Assay: Luciferase reporter assay of GABAB receptor 1 promoter P1b activity (pAM440) in transfected ND7/23 cells
Format: cell-based
Settings: Forskolin 10 μM + 1-methyl-3-isobutylxanthine 0.125 mM, 24 h
Description: Reporter constructs containing R1a and R1b promoter fragments were generated by PCR using plasmid pAM 364, containing genomic sequence covering the promoter regions, as template. PCR reaction was performed by standard procedure (Perkin Elmer). Briefly, an initial denaturation at 95° C. for 4 min was followed by 35 cycles of denaturation at 95° C. for 1 min, annealing at 60° C. for 1 min, elongation at 72° C. for 1 min and finally a 7 min elongation at 72° C. […]
To determine putative promoter activity, the reporter gene constructs were introduced into mammalian cells by transfection. […] Luciferase activity in cell extracts was measured in a Luciferase Assay System (Promega), where 40 μl of cell extracts was added to a 96-well plate (Maxisorp, Nunc) and mixed with 50 μl of luciferase substrate. Luciferase activity was then measured in a LUMIstar (BMG Lab technologies). As internal control for transfection efficiency, β-Galactosidase (β-Gal.) activity was measured in 96-well plate (Maxisorp, Nunc) using a β-Galactosidase Enzyme Assay (Promega) according to suppliers protocol.
ND7/23 cells (4×10^5) were transfected with promoter-luciferase constructs as described above. […] After incubation, cells were harvested and luciferase activity measured. Luciferase activity, minus background, is shown as arbitrary light units measured in 40 μl of cell extracts. […]

CC(C)Cn1c(=O)n(C)c(=O)c2[nH]cnc21 [IBMX, 1-methyl-3-isobutylxanthine]
further enhancement of forskolin induced expression: does not show a significant difference
